Test results: patent publication US20240368139A1, “NOVEL MODULATORS OF EHMT1 AND EHMT2 AND THERAPEUTIC USE THEREOF” (Tango Therapeutics, Inc., priority 2021, published 2024)

Assays:
[1] = test system: H3K9me2 in HCT116 cells; assay: HCT116 H3K9me2 in-cell western assay; assay type: cell-based; conditions: Homo sapiens, HCT-116, 72 h, HCT116 cells, 72 hours incubation; read-out: H3K9me2 ICW IC50
Description: HCT116 cell line was purchased from ATCC (Manassas, VA, USA). […] Penicillin-Streptomycin and heat inactivated fetal bovine serum were purchased from Hyclone (Logan, UT, USA). DPBS, Corning^R were purchased from VWR (Radnor, PA, USA). Triton′ X-100 was purchased from Sigma (St. Louis, MO, USA). Intercept blocking buffer, DRAQ5, Licor Odyssey Infrared Scanner were purchased from Licor Biosciences (Lincoln, NB, USA). Plate washer was purchased from BioTek (Winooski, VT, USA). […] 16% Paraformaldehyde was purchased from Electron Microscopy Sciences (Hatfield, PA, USA). HCT116 cells were maintained in complete growth medium (RPMI supplemented with 10% heat inactivated fetal bovine serum, 1% Penicillin-Streptomycin) and cultured at 37° C. under 5% CO2. N^2-(4-methoxy-3-(3-(pyrrolidin-1-yl)propoxy)phenyl)-N^4,6-dimethyl]pyrimidine-2,4-diamine (synthesis disclosed in International Application WO2017181177A1) was used as a control compound.
HCT116 cells (ATCC) were trypsinized, counted and seeded in assay medium (RPMI supplemented with 10% heat inactivated fetal bovine serum, 1% Penicillin-Streptomycin) at a concentration of 2,000 cells per well to a 384-well cell culture plate with compounds in 50 μl per well. Plates were incubated with at 37° C. under 5% CO2 for 72 hours. After the incubation, 50 μl per well of 8% paraformaldehyde in PBS was added to the plates and incubated at room temperature for 20 minutes. Plates were transferred to a BioTek (EL406) plate washer and washed 5 times with 110 μl per well of wash buffer (1×PBS containing 0.1% Triton X-100). The plates were next blocked with 50 μl of Intercept blocking buffer for 1 hour at room temperature. Blocking buffer was removed and 30 μl per well of monoclonal primary antibody of H3K9me2 (CST) diluted 1:200 in Intercept blocking buffer were added and plates were incubated overnight at 4° C. The plates were then washed 5 times with 110 μl per well of wash buffer (1×PBS containing 0.1% Triton X-100). Next 30 μl per well of secondary was added (1:400 800 CW goat anti-rabbit IgG in blocking buffer) with 1:1000 DRAQ5 in blocking buffer and incubated for 2 hours at room temperature. The plates were washed 5 times with 110 μl per well of wash buffer (1×PBS containing 0.1% Triton X-100) then with 100 μl per well of water once. Plates were allowed to dry at room temperature then imaged on a Licor Odyssey Infrared Scanner which measured integrated intensity at 700 nm and 800 nm wavelength. Both 700 and 800 channels were scanned.
The average of the ratio values (800 nm/700 nm) for each well was calculated and used to determine the percentage for each test well in the plate. Compounds were serially diluted two-fold in 0.1% DMSO for a total of 10 test concentrations beginning at 10 μM. IC50 curves were generated using duplicate wells per concentration of compound. […] IC50 values were calculated using a non-linear regression of Prism.

[2] = target: T1, human EHMT1 982-1266 (Homo sapiens, UniProt Q9H9B1); assay: EHMT1 enzyme assay on histone peptide substrate (3H-SAM SPA); conditions: EHMT1 IC50, recombinant human EHMT1 982-1266, histone peptide substrate
T1 sequence (Q9H9B1 982-1266): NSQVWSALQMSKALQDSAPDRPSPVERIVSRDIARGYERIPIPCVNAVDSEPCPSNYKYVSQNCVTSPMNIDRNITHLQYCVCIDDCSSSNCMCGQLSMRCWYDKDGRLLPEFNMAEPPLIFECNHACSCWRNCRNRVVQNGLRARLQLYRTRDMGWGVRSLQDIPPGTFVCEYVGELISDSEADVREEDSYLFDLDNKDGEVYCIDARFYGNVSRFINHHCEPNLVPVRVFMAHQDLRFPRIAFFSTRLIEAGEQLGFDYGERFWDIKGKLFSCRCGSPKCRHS

[3] = target: T2, human EHMT2 913-1193 (Homo sapiens, UniProt Q96KQ7); assay: EHMT2 enzyme assay on histone peptide substrate (3H-SAM SPA); conditions: EHMT2 IC50, recombinant human EHMT2 913-1193, histone peptide substrate
T2 sequence (Q96KQ7 913-1193): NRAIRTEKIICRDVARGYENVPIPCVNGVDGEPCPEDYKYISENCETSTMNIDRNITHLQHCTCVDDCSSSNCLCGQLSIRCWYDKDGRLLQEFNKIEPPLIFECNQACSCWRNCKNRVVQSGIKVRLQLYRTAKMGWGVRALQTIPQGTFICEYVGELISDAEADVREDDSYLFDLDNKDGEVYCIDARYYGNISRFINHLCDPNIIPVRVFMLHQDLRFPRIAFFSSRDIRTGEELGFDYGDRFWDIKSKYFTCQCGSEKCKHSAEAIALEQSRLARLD

| Compound | IC50 [1] [nM] | IC50 [2] [nM] | IC50 [3] [nM] |
| --- | --- | --- | --- |
| CNc1cc(C)nc(Nc2cc3c(c(C4=CCN(C)CCC4)c2)OCCO3)c1 [Compound 146, N4,6-dimethyl-N2-[5-(1-methyl-2,3,4,7-tetrahydroazepin-5-yl)-2,3-dihydro-1,4-benzodioxin-7-yl]pyridine-2,4-diamine] | 100 to 500 | 100 to 500 | 500 to 2000 |
| CNc1cc(C)nc(Nc2cc(OCCCN3CCCC3)c3c(c2)OCO3)c1 [Compound 147, N4,6-dimethyl-N2-[7-(3-pyrrolidin-1-ylpropoxy)-1,3-benzodioxol-5-yl]pyridine-2,4-diamine] | 500 to 2000 | 500 to 2000 | > 2000 |
| CNc1cc(C)nc(Nc2cc3c(c(C4=CCC(N)CC4)c2)OCC3)n1 (stereo not drawn) [Compound 148, N2-[7-(4-aminocyclohexen-1-yl)-2,3-dihydrobenzofuran-5-yl]-N4,6-dimethyl-pyrimidine-2,4-diamine] | 500 to 2000 | 500 to 2000 | > 2000 |
| CNc1cc(C)nc(Nc2cc3c(c(C4CCNCC4)c2)OCC3)n1 [Compound 149, N4,6-dimethyl-N2-[7-(4-piperidyl)-2,3-dihydrobenzofuran-5-yl]pyrimidine-2,4-diamine] | > 2000 | > 2000 | > 2000 |
| CNc1cc(C)nc(Nc2cc3c(c(N4CCNCC4)c2)OCC3)n1 [Compound 152] | > 2000 | > 2000 | > 2000 |
| CNc1cc(C)nc(Nc2cc3c(c([C@H]4CC[C@H](N)CC4)c2)OCC3)n1 [Compound 153, N2-[7-(4-aminocyclohexyl)-2,3-dihydrobenzofuran-5-yl]-N4,6-dimethyl-pyrimidine-2,4-diamine] | > 2000 | > 2000 | > 2000 |
| CNc1cc(C)nc(Nc2cc(OCCCN3CCCC3)c3c(c2)OC(F)(F)O3)n1 [Compound 154, N2-[2,2-difluoro-7-(3-pyrrolidin-1-ylpropoxy)-1,3-benzodioxol-5-yl]-N4,6-dimethyl-pyrimidine-2,4-diamine] | 100 to 500 | < 100 | 500 to 2000 |
| CNc1cc(C)nc(Nc2cc3c(c(C4=CCNCC4)c2)OCC3)n1 [Compound 155, N4,6-dimethyl-N2-[7-(1,2,3,6-tetrahydropyridin-4-yl)-2,3-dihydrobenzofuran-5-yl]pyrimidine-2,4-diamine] | 100 to 500 | 100 to 500 | 500 to 2000 |
| CNc1cc(C)nc(Nc2cc3c(c(C4=CCN(C)CCC4)c2)OC(F)(F)O3)n1 [Compound 156, N2-[2,2-difluoro-7-(1-methyl-2,3,4,7-tetrahydroazepin-5-yl)-1,3-benzodioxol-5-yl]-N4,6-dimethyl-pyrimidine-2,4-diamine] | 100 to 500 | < 100 | 100 to 500 |
| CNc1cc(C)nc(Nc2cc3c(c(C4=CCN(CCOC)CCC4)c2)OC(F)(F)O3)n1 [Compound 158, N2-[2,2-difluoro-7-[1-(2-methoxyethyl)-2,3,4,7-tetrahydroazepin-5-yl]-1,3-benzodioxol-5-yl]-N4,6-dimethyl-pyrimidine-2,4-diamine] | > 2000 | > 2000 | > 2000 |
| CNc1cc(C)nc(Nc2cc3c(c(C4=CCN(C)CCC4)c2Cl)OCCO3)n1 [Compound 165, N2-[6-chloro-5-(1-methyl-2,3,4,7-tetrahydroazepin-5-yl)-2,3-dihydro-1,4-benzodioxin-7-yl]-N4,6-dimethyl-pyrimidine-2,4-diamine] | < 100 | < 100 | < 100 |
| CNc1cc(C)nc(Nc2cc3c(c(C4=CCN(C)CCC4)c2F)OCC32CC2)n1 [Compound 171] | < 100 | < 100 | 100 to 500 |
| CNc1cc(C)nc(Nc2cc3c(c(C4=CCN(C)CCC4)c2F)OCCC3(F)F)n1 [Compound 173] | < 100 | < 100 | 100 to 500 |
| CNc1cc(C)nc(Nc2cc3c(c(C4=CCNCCC4)c2F)OCCC3(F)F)n1 [Compound 174] | < 100 | < 100 | < 100 |
| CNc1cc(C)nc(Nc2cc3c(c(C4=CCNCCC4)c2F)OCC3(C)C)n1 [Compound 178] | < 100 | < 100 | 100 to 500 |
| CNc1cc(C)nc(Nc2cc3c(c(C4=CCN(C)CCC4)c2F)OCC3C)n1 (stereo not drawn) [Compound 181] | 100 to 500 | < 100 | 100 to 500 |
| CNc1cc(C)nc(Nc2cc3c(c(C4=C[C@@H](C)NCCC4)c2F)OCC3)n1 [Compound 182] | < 100 | < 100 | 100 to 500 |
| CNc1cc(C)nc(Nc2cc3c(c(C4=C[C@H](C)NCCC4)c2F)OCC3)n1 [Compound 185] | < 100 | < 100 | 100 to 500 |
| CNc1cc(C)nc(Nc2c(F)c3c(c(C4=CCN(C)CCC4)c2F)OCC3)n1 [Compound 186] | 100 to 500 | 100 to 500 | 500 to 2000 |
| CNc1cc(C)nc(Nc2cc3c(c(C4=CCNCCC4)c2OC)OCC3)n1 [Compound 192] | 100 to 500 | 100 to 500 | 500 to 2000 |
| CNc1nc(Nc2cc3c(c(C4=CCNCCC4)c2F)OCC3)nc(C)c1OC [Compound 194] | < 100 | < 100 | 100 to 500 |
| CNc1cc(C)nc(Nc2cc3c(c(C4=CCN(C(C)C)CCC4)c2F)OCC3)n1 [Compound 195] | < 100 | < 100 | 100 to 500 |
| CNc1nc(Nc2cc3c(c(C4=CCN(C)CCC4)c2F)OCC3)nc(C)c1OC [Compound 196] | 100 to 500 | 100 to 500 | 500 to 2000 |
| CNc1nc(Nc2cc3c(c(C4=CCNCCC4)c2F)OCCO3)nc(C)c1F [Compound 197] | 100 to 500 | 100 to 500 | 500 to 2000 |
| CNc1cc(C)nc(Nc2cc3c(c(C4=CCNCCC4)c2O)OCC3)n1 [Compound 198] | 100 to 500 | < 100 | 100 to 500 |
